# Measurements published in patent US20180153995A1, “USE OF ANTIMICROBIAL POLYMERS FOR RE-SENSITIZATION OF MICROORGANISMS UPON EMERGENCE OF RESISTANCE TO ANTI-MICROBIAL AGENTS” (Technion Research & Development Foundation Limited, priority 2008, published 2018).
# Where two headings read alike, the source gives them in different places.
# Tests used:
# MRSA 15852 = format: cell-based, Staphylococcus aureus; conditions: S. aureus 15852
# Method in brief: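 Checkerboard combination testing against MRSA 15852; FIC index = A/MICA + B/MICB, with A and B the MICs of each agent in combination and MICA, MICB the MICs alone. Index <0.5 read as clear re-sensitizing, 0.5–4 as marginal or null, >4 as antagonism.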
# S. aureus 43300 = assay: Antibiotic MIC by microdilution with or without sub-MIC polymer; format: cell-based, Staphylococcus aureus
# Protocol: (§1) MICs were determined by microdilution susceptibility testing in 96-well plates (by Nunc) using inocula of 10^5 bacteria per ml. Cell populations were evaluated by optical density measurements at 620 nm and were calibrated against a set of standards. Hundred (100) μl of a bacterial suspension were added to 100 μl of culture medium (control) or to 100 μl of culture medium containing various polymer concentrations in 2-fold serial dilutions. Inhibition of proliferation was determined by optical density measurements at 620 nm after an incubation period of 24 hours at 37° C.
# Table 8 below presents the MIC values of antibiotics in presence or absence of C12(5-ene)KKNC12KNH2 (SEQ ID NO: 2) at sub-MIC levels of the polymer, as measured for the S. aureus strains 43300 (ATCC), 15819 (clinical isolate), 15877 (clinical isolate) and 15852 (clinical isolate). MICs were determined by microdilution susceptibility testing in 96-well plates (Nunc) using inocula of 10^5 bacteria per ml. One hundred (100) μl of a bacterial suspension were added to 100 μl of culture medium (control) or to 100 μl of culture medium containing various antibiotic and C12(5-ene)KKNC12KNH2 (SEQ ID NO: 2) concentrations in 2-fold serial dilutions. Inhibition of proliferation was determined by optical density measurements at 620 nm after an incubation period of 24 hours at 37° C.
# (§2) 100 μl of a bacterial suspension were added to 100 μl of culture medium (control) or to 100 μl of culture medium containing various antibiotic and C14(9-ene)KKNC12KNH2 (SEQ ID NO: 5) concentrations in 2-fold serial dilutions. Inhibition of proliferation was determined by optical density measurements at 620 nm after an incubation period of 24 hours at 37° C.
# S. aureus 17314 = assay: as above; format: cell-based, Staphylococcus aureus
# E. coli 14182 = assay: as above; format: cell-based, Escherichia coli
# P. aeruginosa 8732 = assay: as above; format: cell-based, Pseudomonas aeruginosa
# Protocol: as §1
# Inhibition of proliferation was determined by optical density measurements at 620 nm after an incubation period of 24 hours at 37° C.
# P. mirabilis 1285 [1] = format: cell-based, Proteus mirabilis; conditions: no polymer (None), Table 12
# Protocol: as §1, §2
# E. coli AG100 = assay: Antibiotic MIC with or without sub-MIC polymer (Tables 20, 21); format: cell-based, Escherichia coli
# E. coli AG100/ks = assay: as above; format: cell-based, Escherichia coli
# P. mirabilis 1285 [2] = format: cell-based, Proteus mirabilis
# [3] = +½ MIC (3.12 μM) C12(5-ene)KKNC12KNH2
smiles,measurement,setting,value
"CC1(C)S[C@@H]2[C@H](NC(=O)Cc3ccccc3)C(=O)N2[C@H]1C(=O)O [Penicillin G, penicillin G]",Antibiotic MIC,MRSA 15852; +¼ MIC (1.6 μM) C12(5-ene)KKNC12KNH2,32 µg/mL
same,Antibiotic MIC,MRSA 15852; +¼ MIC (1.6 μM) C12KKNC12KNH2,64 µg/mL
same,Antibiotic MIC,MRSA 15852; [3],32 µg/mL
same,Antibiotic MIC,MRSA 15852; +½ MIC (3.12 μM) C12KKNC12KNH2,64 µg/mL
same,Antibiotic MIC,MRSA 15852; +⅓ MIC (2.1 μM) C12(5-ene)KKNC12KNH2,32 µg/mL
same,Antibiotic MIC,MRSA 15852; +⅓ MIC (2.1 μM) C12KKNC12KNH2,64 µg/mL
same,Antibiotic MIC,"MRSA 15852; no polymer (None), Table 8",32 µg/mL
same,Antibiotic MIC,"MRSA 15852; no polymer (None), Table 11",64 µg/mL
same,Antibiotic MIC,S. aureus 43300; +¼ MIC (1.6 μM) C14(9-ene)KKNC12KNH2,4 µg/mL
same,Antibiotic MIC,S. aureus 43300; [3],0.03 µg/mL
same,Antibiotic MIC,S. aureus 43300; +½ MIC (3.12 μM) C14(9-ene)KKNC12KNH2,2 µg/mL
same,Antibiotic MIC,S. aureus 43300; +⅓ MIC (2.1 μM) C14(9-ene)KKNC12KNH2,4 µg/mL
same,Antibiotic MIC,"S. aureus 43300; no polymer (None), Table 8",4 µg/mL
same,Antibiotic MIC,"S. aureus 43300; no polymer (None), Table 9",4 µg/mL
same,Antibiotic MIC,"S. aureus 43300; no polymer (None), Table 10",4 µg/mL
same,Antibiotic MIC,"S. aureus 43300; no polymer (None), Table 11",8 µg/mL
same,Antibiotic MIC,"S. aureus 43300; no polymer (None), Table 12",8 µg/mL
same,Antibiotic MIC,S. aureus 17314,64 to 128 µg/mL
same,Antibiotic MIC,"S. aureus 17314; S. aureus 17314, +¼ MIC (1.6 μM) C12K(KNC12K)2NH2",128 µg/mL
same,Antibiotic MIC,"S. aureus 17314; S. aureus 17314, +¼ MIC (1.6 μM) C14(9-ene)KKNC12KNH2",8 µg/mL
same,Antibiotic MIC,"S. aureus 17314; S. aureus 17314, +¼ MIC (1.6 μM) C16(9-ene)KKNC12KNH2",2 µg/mL
same,Antibiotic MIC,"S. aureus 17314; S. aureus 17314, +½ MIC (3.12 μM) C12K(KNC12K)2NH2",64 µg/mL
same,Antibiotic MIC,"S. aureus 17314; S. aureus 17314, +½ MIC (3.12 μM) C12KKNC12KNH2",64 µg/mL
same,Antibiotic MIC,"S. aureus 17314; S. aureus 17314, +½ MIC (3.12 μM) C14(9-ene)KKNC12KNH2",6 µg/mL
same,Antibiotic MIC,"S. aureus 17314; S. aureus 17314, +½ MIC (3.12 μM) C16(9-ene)KKNC12KNH2",0.5 µg/mL
same,Antibiotic MIC,"S. aureus 17314; S. aureus 17314, +⅓ MIC (2.1 μM) C12K(KNC12K)2NH2",128 µg/mL
same,Antibiotic MIC,"S. aureus 17314; S. aureus 17314, +⅓ MIC (2.1 μM) C14(9-ene)KKNC12KNH2",8 µg/mL
same,Antibiotic MIC,"S. aureus 17314; S. aureus 17314, +⅓ MIC (2.1 μM) C16(9-ene)KKNC12KNH2",1 µg/mL
same,Antibiotic MIC,"S. aureus 17314; S. aureus 17314, no polymer (None), Table 9",8 µg/mL
same,Antibiotic MIC,"S. aureus 17314; S. aureus 17314, no polymer (None), Table 10",8 to 16 µg/mL
same,Antibiotic MIC,"S. aureus 17314; S. aureus 17314, no polymer (None), Table 11",128 µg/mL
same,Antibiotic MIC,"S. aureus 17314; S. aureus 17314, no polymer (None), Table 12",128 µg/mL
same,Antibiotic MIC,E. coli 14182; +½ MIC C12K(NC8K)5NH2,>512 µg/mL
same,"Antibiotic MIC, None",E. coli 14182; antibiotic alone (Table 15),>512 µg/mL
same,Antibiotic MIC,"E. coli 14182; no polymer (None), Table 14",>512 µg/mL
same,"Antibiotic MIC in presence of C12K(NC8K)7NH2 (SEQ ID NO: 4), +¼ MIC",E. coli 14182; polymer at ¼ of its MIC,>512 µg/mL
same,"Antibiotic MIC in presence of C12K(NC8K)7NH2 (SEQ ID NO: 4), +½ MIC",E. coli 14182; polymer at ½ of its MIC,>512 µg/mL
same,"Antibiotic MIC in presence of C12K(NC8K)7NH2 (SEQ ID NO: 4), +⅓ MIC",E. coli 14182; polymer at ⅓ of its MIC,>512 µg/mL
same,Antibiotic MIC,P. aeruginosa 8732,512 µg/mL
same,Antibiotic MIC,"P. aeruginosa 8732; P. aeruginosa 8732, +½ MIC (3.12 μM) C16(9-ene)KKNC12KNH2",512 µg/mL
same,Antibiotic MIC,"P. aeruginosa 8732; P. aeruginosa 8732, +⅓ MIC (2.1 μM) C16(9-ene)KKNC12KNH2",512 µg/mL
same,Antibiotic MIC,"P. aeruginosa 8732; P. aeruginosa 8732, no polymer (None), Table 10",512 µg/mL
same,Antibiotic MIC,P. mirabilis 1285 [1],512 µg/mL
same,"Antibiotic MIC, None",E. coli AG100; antibiotic alone (Table 20),32 µg/mL
same,"Antibiotic MIC, None",E. coli AG100; antibiotic alone (Table 21),32 µg/mL
same,"Antibiotic MIC in presence of C12K(NC8K)5NH2 (SEQ ID NO: 3), +¼ MIC",E. coli AG100; polymer at ¼ of its MIC,16 µg/mL
same,"Antibiotic MIC in presence of C12K(NC8K)7NH2 (SEQ ID NO: 4), +¼ MIC",E. coli AG100; polymer at ¼ of its MIC,16 to 32 µg/mL
same,"Antibiotic MIC in presence of C12K(NC8K)5NH2 (SEQ ID NO: 3), +½ MIC",E. coli AG100; polymer at ½ of its MIC,8 µg/mL
same,"Antibiotic MIC in presence of C12K(NC8K)7NH2 (SEQ ID NO: 4), +½ MIC",E. coli AG100; polymer at ½ of its MIC,8 µg/mL
same,"Antibiotic MIC in presence of C12K(NC8K)5NH2 (SEQ ID NO: 3), +⅓ MIC",E. coli AG100; polymer at ⅓ of its MIC,16 µg/mL
same,"Antibiotic MIC in presence of C12K(NC8K)7NH2 (SEQ ID NO: 4), +⅓ MIC",E. coli AG100; polymer at ⅓ of its MIC,8 to 16 µg/mL
same,"Antibiotic MIC, None",E. coli AG100/ks; antibiotic alone (Table 20),>512 µg/mL
same,"Antibiotic MIC, None",E. coli AG100/ks; antibiotic alone (Table 21),>512 µg/mL
same,"Antibiotic MIC in presence of C12K(NC8K)5NH2 (SEQ ID NO: 3), +¼ MIC",E. coli AG100/ks; polymer at ¼ of its MIC,>512 µg/mL
same,"Antibiotic MIC in presence of C12K(NC8K)5NH2 (SEQ ID NO: 3), +½ MIC",E. coli AG100/ks; polymer at ½ of its MIC,>512 µg/mL
same,"Antibiotic MIC in presence of C12K(NC8K)5NH2 (SEQ ID NO: 3), +⅓ MIC",E. coli AG100/ks; polymer at ⅓ of its MIC,>512 µg/mL
same,Antibiotic MIC,P. mirabilis 1285 [2]; +¼ MIC (1.6 μM) C12K(KNC12K)2NH2,512 µg/mL
same,Antibiotic MIC,P. mirabilis 1285 [2]; +½ MIC (3.12 μM) C12K(KNC12K)2NH2,512 µg/mL
same,Antibiotic MIC,P. mirabilis 1285 [2]; +⅓ MIC (2.1 μM) C12K(KNC12K)2NH2,512 µg/mL
